Like-named read-outs stand apart in the source and are kept apart here.
Columns and labels:
[1] = system: PBMCs from healthy donors; test: PBMC assay, dose-dependent cytokine induction; assay type: cell-based; settings: Homo sapiens, 24 h
Procedure: Compounds I-A to IV were additionally tested on PBMCs from healthy donors to determine the dose-dependent cytokine induction. PBMCs from buffy coats were thawed on the day of the experiment and seeded with a density of 5×10^5 cells per well (96-well format, RPMI with 5% Human Serum+1% MEM Non-Essential Amino Acids+1% Sodium Pyruvate). In line with the experiment above, a serial dilution of the compounds was prepared and added to the cells for 24 hours. On the next days, cells were centrifuged and supernatants harvested for a cytokine readout based on a multiplex assay kit from mesoscale discovery (customized multiplex panel for the cytokines: IFNα2a, IFNβ, TNFα and IL6). Impact on cell viability was determined by CellTiter Glo2.0 from promega (Cat. G9241). Both experimental read outs were performed according to the manufacturer's instructions.

human STING = molecular target: T1, human STING (Homo sapiens, UniProt Q86WV6); test: Affinity measurement assay (Biacore T200 SPR); settings: biotinylated human STING, 25° C., 1:1 binding model, read-out: Affinity (Kd) rhSTING
T1 construct: fused on or other part: His tag; chemically biotinylated (Sulfo-NHS-LC-Biotin) for capture on the chip
T1 sequence (Q86WV6 153-340 limits assumed): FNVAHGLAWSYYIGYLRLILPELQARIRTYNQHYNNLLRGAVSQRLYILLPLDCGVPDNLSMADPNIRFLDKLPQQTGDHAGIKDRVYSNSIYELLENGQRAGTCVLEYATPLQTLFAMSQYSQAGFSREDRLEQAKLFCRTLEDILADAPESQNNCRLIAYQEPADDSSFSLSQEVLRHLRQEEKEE
Procedure: T7 Shuffle E. coli cells, transformed with an expression vector encoding either a truncated version of human or murine His-tagged STING, were cultivated overnight in 50 mL LB media. 200 mL of LB media were inoculated to an OD600 of 0.05 and cells were grown at 37° C. at 120 rpm until an OD600 of 0.5 was reached. Protein expression was induced using 1 mM IPTG and cells were further cultivated at 30° C. over night. Cells were harvested by centrifugation at 4000 rpm for 30 min at 4° C. and frozen at −80° C. Subsequently, cells were thawed and resuspended in 30 mL IMAC-Buffer A (10 mM HEPES, 50 mM NaCl, 10 mM Imidazole, 250 mM L-Arginine, 10% Glycerol, pH 7.1) supplemented with 15 U/mL benzonase, 0.2 mg/mL MgCl2 and 0.1 mg/mL lysozyme. Lysis was performed by five sonification cycles with an amplitude of 25% and a pulse for 2 s, with 5 min incubation on ice between cycles. The lysate was centrifuged for 15 min at 16.000 g and the supernatant was filtrated (0.22 μm). Purification of STING was done using an ÄKTA prime chromatography system. A 1 mL His Trap excel column was equilibrated with IMAC-Buffer A before lysate was applied. After washing with multiple column volumes of buffer, STING was eluted using a linear gradient of IMAC-Buffer B (10 mM HEPES, 50 mM NaCl, 500 mM Imidazole, 250 mM L-Arginine, 10% Glycerol, pH 7.1). Elution fractions were analyzed by SDS-PAGE and STING containing fractions were mixed. Using the Äkta pure system in combination with a HiLoad Superdex 16/600 75 pg column, STING was further purified by preparative size-exclusion chromatography. Fractions were analyzed by SDS-PAGE and STING containing fractions were combined.
Purified proteins were biotinylated using EZ-Link Sulfo-NHS-LC-Biotin (Life Technologies GmbH) in ten-fold excess for 2 h on ice. The reaction was quenched by addition of 100 mM Tris pH8 and 1 h incubation on ice. Remaining biotin was removed by performing buffer exchange to PBS using Zeba Spin Desalting Columns, 7K MWCO, 0.5 mL (Thermo Fischer). Protein concentrations were determined using the Nanodrop system.
Affinity measurement of STING-binding compounds were performed using the Biacore T200 SPR system (GE Healthcare, Biacore T200 control Software 3.2). Therefore, the Biotin CAPture kit, series S (Cytiva Europe, Cat.no. 28920234) was utilized. A freshly docked Biotin CAPture chip was rehydrated overnight in the instrument (standby mode). The following day, the chip surface was conditioned three times with regeneration solution (6 M guanidine-HCl, 0.25 M NaOH) for 60 s at 10 μL/min on flow cell (FC) 1 and FC2. Subsequently, the Biotin CAPture reagent (Cytiva Europe, Cat.no. 29423383) was applied for 300 s at 2 μL/min on FC1 and FC2, followed by capturing of 100 nM biotinylated murine or 150 nM biotinylated human STING, respectively. […]

4T1 cells = test: Anti-tumoral efficacy in murine 4T1 breast cancer model; assay type: in vivo, Balb/c Rj mice
Procedure: The anti-tumoral efficacy of compound I-D was tested in a murine 4T1 breast cancer model. Balb/c Rj mice were injected subcutaneously with 1×10^5 4T1 cells. Three doses of compound I-D formulated in 5% Solutol in 2.5% glucose (31 nmol, 3.1 nmol and 0.31 nmol) or the vehicle control (5% Solutol in 2.5% glucose) were administered intratumorally at days 11, 16 and 21 after inoculation. Tumor size was monitored using BioVolume® (calculating the tumor size based on RGB, thermal and 3D model data) until day 21, when animals were sacrificed and tumor cytokines were analyzed compared to serum 3 h after final agonist injection. To evaluate the statistical significance of tumor volume reduction compared to the vehicle control, a 2way ANOVA test was used: *** p<0.0001.

[2] = system: STING signaling (IRF and NFKB-pathway activation) in THP1 Dual Cells; test: THP-1 assay (THP1 Dual reporter cells, IRF / NFkB pathway activation); assay type: cell-based; settings: Homo sapiens; THP1 Dual cells, 24 h incubation, IRF pathway; read-out: THP-1 EC50 (IRF)
Procedure: THP1 Dual Cells™, were purchased from Invivogen (Cat. thpd-nfis), and used to determine the biological activity of the compounds on a molecular level and to determine downstream activation of STING signaling (IRF and NFKB-pathway activation). Briefly, cultured cells were seeded on the day of the experiment with a density of 1×10^5 cells per well (96-well format in RPMI supplemented with 25 mM HEPES, 10% heat inactivated FCS,). A serial dilution of the compounds was prepared and added to the cells for a total incubation time of 24 hours. The test items were tested in 8 concentrations to determine a dose-dependent activation of the NFKB and the IRF pathway. After 24 h cells were centrifuged and supernatants harvested for the detection of secreted alkaline phosphatase (measured by QUANTI-Blue™ detection solution; Cat. rep-qbs Invivogen) or lucia luciferase (measured by QUANTI-Luc™ reagent; Cat. rep-qlc1, Invivogen), respectively. The read outs were be performed according to the manufacturer's instructions. EC50 values were calculated using GraphPad Prism 9.

[3] = IFNα in supernatant, read-out: PBMC EC50 (μM) for IFNα
[4] = IFNβ in supernatant, read-out: PBMC EC50 (μM) for IFNβ
[5] = tumor, 3 h after final agonist injection, day 21

| Kd (human STING) [nM] | EC50 [2] [nM] | SMILES | EC50 [1, 3] [µM] | EC50 [1, 4] [µM] | Tumor size (BioVolume) compared to vehicle control (4T1 cells; 31, 3.1 and 0.31 nmol intratumorally at days 11, 16 and 21, until day 21) | IFNα level in the tumor compared to diABZI (4T1 cells; [5]) | IFNγ level in the tumor compared to diABZI (4T1 cells; [5]) |
| --- | --- | --- | --- | --- | --- | --- | --- |
| 2.91 | – | CCn1nc(C)cc1C(=O)Nc1nc2cc(C(=O)N(C)NC)cc(OC)c2n1C/C=C/Cn1c(NC(=O)c2cc(C)nn2CC)nc2cc(C(N)=O)cc(OCCCN3CCOCC3)c21 [II-D] | 1.14 | 0.821 | – | – | – |
| 0.00413 | – | CCn1nc(C)cc1C(=O)Nc1nc2cc(C(N)=O)cc(OC)c2n1C/C=C/Cn1c(NC(=O)c2cc(C)nn2CC)nc2cc(C(N)=O)cc(OCCCC(=O)N(C)NC)c21 [I-D] | 0.26 | 0.265 | marked decrease in tumor size | higher levels | higher levels |
| 0.959 | 2740 | CCn1nc(C)cc1C(=O)Nc1nc2cc(C(=O)NNC)cc(OC)c2n1C/C=C/Cn1c(NC(=O)c2cc(C)nn2CC)nc2cc(C(N)=O)cc(OCCCN3CCOCC3)c21 [II-B] | 1.95 | 1.16 | – | – | – |
| 0.319 | – | CCn1nc(C)cc1C(=O)Nc1nc2cc(C(N)=O)cc(OC)c2n1C/C=C/Cn1c(NC(=O)c2cc(C)nn2CC)nc2cc(C(=O)NN)cc(OCCCN3CCOCC3)c21 [III] | – | 0.387 | – | – | – |

— patent publication US20260242366A1, “STING AGONISTS CONTAINING HYDRAZIDE, HYDRAZINE, AND HYDROXAMIC ACID FUNCTIONAL GROUPS” (BioNTech SE, priority 2023, published 2026)
